{"source": "patent US6506880B2", "about": "“Synthetic peptides that enhance atherogenic lipoprotein uptake and lower plasma cholesterol” (The UAB Research Foundation, priority 1998, dated 2003)", "key": {"MEF1 cells [1]": {"tested_on": "MEF1 cells", "experiment": "Internalization (uptake) and binding of 125I-LDL by mouse embryonic fibroblasts", "type": "cell-based", "details": "for Enhancement of LDL uptake (in words): mouse fibroblasts, results not shown", "experimental": "The binding, internalization and degradation of LDL/VLDL in fibroblasts were measured using the method of Goldstein et. al. (20). All cells were grown in DMEM medium in 6-well plates and used at 75-90% confluence was reached. The seeding density of cells used was between 1.5×10^5 and 3.0×10^5 cells/ml medium. Cells were incubated with DMEM medium containing LPDS 24 hours prior to use to upregulate LDL receptors. […] Non-specific binding was determined in the presence of 50 fold excess unlabelled LDL/VLDL with or without peptides. After washing with ice cold PBS (containing BSA 2 mg/ml), to remove excess free labeled lipoprotein, the cells were incubated with dextran sulfate (4 mg/ml, Pharmacia, Mr 500,000) or heparin (Sigma Chemical Co., 10 mg/ml) for 1 h to release spcifically bound ^125I-LDL/^125I-VLDL, and washed with cold PBS. The counts in the dextran sulfate wash reflect the amount of LDL/VLDL bound to cells.\nThe cells were dissolved in 0.1 N NaOH and a 0.5 ml aliquot of cell suspension was counted. These counts reflect the amount of LDL/VLDL internalized. Protein was estimated by the method of Lowry. Degradation of LDL/VLDL were studied using the protocol described above for 4° C., except that the cells were incubated at 37° C. for 5 hours. Degradation was determined by precipitating the unbound ^125I-LDL/^125I-VLDL from the medium with 50% TCA (0.5 ml of 50% TCA was added to 1 ml of medium) and incubating at 4° C. for 30 minutes (20). The precipitate was removed by centrifugation. The supernatant was treated with 10 μl of 40% potassium iodide and 40 μl of 30% hydrogen peroxide. The free ^125I liberated was extracted with 2 ml of chloroform. The upper aqueous layer (0.5 ml) was then counted. This represented the amount of ^125I-monoiodotyrosine produced by the degradation of apoB in LDL/VLDL.\n(§1) Heparinase and heparitinase treatment of cells was carried out as follows. The cells were treated with heparinase and heparitinase (Sigma Chemical Co.) at a concentration of 3 U/ml of media for 2 hours at 37° C. These experiments were carried out using human and mouse fibroblasts as well as HepG2 cells. Mouse embryonic fibroblasts (MEF1), the LRP deficient mutant (PEA13) and the LRP/LDL double mutant (MEF4) were (obtained from ATCC ) used to identify the possible mechanism involved. In all the cell experiments, the average value of triplicates was used.\nThe effect of the peptide was studied in two ways: (a) the peptide was added to the cell media directly after adding LDL and (b) it was first incubated with LDL for 1 h at room temperature and the coincubated mixture was added to the cells after filtering through a 0.221μ filter. The peptide-LDL “complex” or modified LDL appears to enhance the uptake of ^125I-LDL much more than the peptide by itself (results not shown). […]"}, "HepG2 cells [2]": {"tested_on": "HepG2 cells", "experiment": "Uptake of 125I-VLDL-peptide complex by HepG2 cells", "type": "cell-based"}, "[3]": {"experiment": "Circular dichroic spectrometry, percent helicity of peptides", "type": "physicochemical", "details": "for Percent Helicity, Peptide: peptide alone, 100 μM in PBS, pH 7.4, 25° C.; for Percent Helicity, Peptide/DMPC (1:20): peptide-DMPC complex 1:20 m/m", "experimental": "Circular dichroic spectra were recorded on a signal averaging AVIV 62DS spectropolarimeter as described earlier (18). Briefly, circular dichroic spectra were obtained at 25° C. by signal averaging of four scans recorded every nm from 260 nm to 190 nm using a cell with a 0.01 cm path length Peptide concentrations in PBS, pH 7.4, used were 100 μM. Peptide-DMPC complexes (1:20 m/m) were prepared as described (18) and the change in peptide helicity upon lipid association measured. The helical content of the peptides was estimated from the mean residue ellipticity, [θ]MRE (deg.cm^2.dmol^−1) at 222 nm using the equations as detailed by Morrisett et al.(23)."}, "MEF1 cells [4]": {"tested_on": "MEF1 cells", "experiment": "Effect of heparinase/heparitinase treatment of cells on peptide-mediated LDL internalization", "type": "cell-based, mouse", "details": "heparinase and heparitinase 0.5 units each/ml", "experimental": "MEF1 cells were pretreated with heparinase/heparitinase(3U/ml) for 2 hours at 37° C. and then incubated with ^1251I-LDL-peptide for 2 hours at 37° C. The black bars represent internalization without heparinase/heparitinase treatment while the speckled bars represent internalization after pretreatment with heparinase/heparitinase.\nas §1\nA possible high capacity, low affinity pathway has been previously identified for lipoprotein binding and uptake. Heparan sulfate proteoglycans (HSPG) bind and take up apo E-enriched lipoproteins (27). […] These apo E mimicking peptides could modify LDL and be taken up through heparan sulfate proteoglycans. Therefore, the cells were treated with heparinase and heparitinase (0.5 units each/ml)."}, "HepG2 cells [5]": {"tested_on": "HepG2 cells", "experiment": "Degradation of 125I-VLDL-peptide complex by HepG2 cells", "type": "cell-based", "experimental": "[…] was used as a control. ^125I-VLDL was incubated with Ac-hE18A-NH2 (1:1 w/w) and reisolated by density centrifugation. The peptide bound to ^125I-VLDL floated to the top while the unbound peptide was at the bottom. The ^125I-VLDL-peptide complex was used to determine the effect of the peptide on the uptake and degradation of ^125I-VLDL. The first bar: ^125I-VLDL alone; the second bar: ^125VLDL-Ac-18A-NH2 (1:1 w/w); the third bar: VLDL-Ac-hE18A-NH2 (1:1 w/w). The data represent an average of triplicate values.\nThe binding, internalization and degradation of LDL/VLDL in fibroblasts were measured using the method of Goldstein et. al. (20). All cells were grown in DMEM medium in 6-well plates and used at 75-90% confluence was reached. The seeding density of cells used was between 1.5×10^5 and 3.0×10^5 cells/ml medium. Cells were incubated with DMEM medium containing LPDS 24 hours prior to use to upregulate LDL receptors. […] Non-specific binding was determined in the presence of 50 fold excess unlabelled LDL/VLDL with or without peptides. […]\nThe cells were dissolved in 0.1 N NaOH and a 0.5 ml aliquot of cell suspension was counted. […] Degradation was determined by precipitating the unbound ^125I-LDL/^125I-VLDL from the medium with 50% TCA (0.5 ml of 50% TCA was added to 1 ml of medium) and incubating at 4° C. for 30 minutes (20). […] The upper aqueous layer (0.5 ml) was then counted. […]"}, "[6]": {"tested_on": "apo E-gene knock out mice", "experiment": "Intravenous administration of peptide, plasma cholesterol (CLiP)", "type": "in vivo, mouse", "experimental": "Female apo E knockout mice were injected through the tail vein with ^125I-Ac-hE18A-NH2 (50 μg in 100 μl PBS). Blood samples were taken by retro-orbital bleeding at baseline (0 h) and at 2 minutes and 6 hours following injection. Success of injection was determined by measuring radioactivity in the 2 minutes sample and calculating total plasma peptide by specific radioactivity of the peptide, assuming total plasma volume=4.2% of body weight.\n50 μg of the ^125I-labeled peptide was injected into the tail vein into female apo E-gene knock out mice. Blood was drawn by retro-orbital bleeding immediately before injection (time 0), and at two minutes and 6 hours following the injection. Success of injections was determined by measuring the plasma radioactivity in the two minute sample; the total plasma peptide at two minutes was determined from the specific activity of the injected peptide and the radioactivity present in the plasma. Total plasma volume was assumed to be 4.2% of body weight. Plasma cholesterol profiles were determined on 5 μl of 0 h and 6 h samples by the CLiP method.\nCLiP were determined using a modification of a previously described method for the semi-automated cholesterol profiling of lipoproteins by column chromatography (31). The apparatus consisted of two biocompatible HPLC pumps, an injector Pharmacia), a post-column reactor, a 30×1 cm Superose 6 column, and a spectrophotometric detector reading at 500 nm. Plasma samples were injected onto the Superose 6 column. Immediately after the column, cholesterol reagent (Cholesterol 1000, Pharmacia) was mixed with the column eluent through a low-dead-volume mixing tee, and the mixture entered a heating block (set at […]). Outflow from the heating block entered the spectrophotometric detector, and the cholesterol profile was collected through an A/D board and the digitized profile stored in a computer.\nTo determine the effect of peptide Ac-hE18A-NH2 in clearing the plasma cholesterol, 14 μg to 33 μg of the peptide were administered into six apo E(-/-) animals. In every case, the plasma cholesterol levels decreased. […]"}, "[7]": {"details": "apo E(-/-) mice, intravenous, 6 hours"}}}
{"substance": "Ac-18A-NH2: control peptide, end protected class A amphipathic helical peptide 18A [reference compound]", "values": [{"measurement": "Enhancement of LDL uptake (in words)", "setting": "MEF1 cells [1]", "value": "did not enhance LDL uptake"}, {"measurement": "Uptake of VLDL by HepG2 cells (in words)", "setting": "HepG2 cells [2]; VLDL-peptide 1:1 w/w", "value": "does not increase uptake of VLDL"}]}
{"substance": "Ac-hE18A-NH2: end protected analog of hE18A (acetyl and amino groups) (Ac-LRKLRKRLLRDWLKAFYDKVAEKLKEAF-NH2)", "values": [{"measurement": "Percent Helicity, Peptide", "setting": "[3]", "value": 69.3, "unit": "%"}, {"measurement": "Percent Helicity, Peptide/DMPC (1:20)", "setting": "[3]", "value": 74.3, "unit": "%"}, {"measurement": "Effectiveness in LDL internalization of protected peptide relative to free peptide", "setting": "MEF1 cells [1]; 10 μg peptide, LDL 10 μg, versus corresponding unprotected peptide", "value": 5, "unit": "times"}, {"measurement": "Enhancement of LDL internalization", "setting": "MEF1 cells [1]; MEF1 cells with induced LDL receptors, 125I-LDL 10 μg + peptide 10 μg, 2 hours at 37° C.", "value": "five"}, {"measurement": "Reduction of uptake of peptide treated LDL by heparinase/heparitinase", "setting": "MEF1 cells [4]", "value": "~50", "unit": "%"}, {"measurement": "Enhancement of uptake of VLDL compared to VLDL alone", "setting": "HepG2 cells [2]; peptide-associated VLDL", "value": "six"}, {"measurement": "Enhancement of degradation of VLDL by HepG2 cells", "setting": "HepG2 cells [5]; VLDL-peptide 1:1 w/w, versus control", "value": "three"}, {"measurement": "Enhancement of degradation of VLDL compared to VLDL alone", "setting": "HepG2 cells [5]; peptide-associated VLDL", "value": "three"}, {"measurement": "Reduction of total cholesterol", "setting": "[6]; FIG. 10B, plasma cholesterol profile at 6 hours vs baseline, single animal", "value": "> 50", "unit": "%"}, {"measurement": "HDL cholesterol", "setting": "[6]; [7]", "value": "unchanged"}, {"measurement": "VLDL and LDL cholesterol levels", "setting": "[6]; [7]", "value": "lowered"}]}
{"substance": "LRKLRKRLLR [reference compound]", "values": [{"measurement": "Enhancement of LDL uptake (in words)", "setting": "MEF1 cells [1]", "value": "did not enhance LDL uptake"}]}
{"substance": "LRKLRKRLLR-18A (LRKLRKRLLRDWLKAFYDKVAEKLKEAF) [hE-18A, 141-150 region of human apo E linked to class A amphipathic helical peptide 18A]", "values": [{"measurement": "Percent Helicity, Peptide", "setting": "[3]", "value": 36.0, "unit": "%"}, {"measurement": "Percent Helicity, Peptide", "setting": "[3]; listed as hE18A", "value": 36, "unit": "%"}, {"measurement": "Percent Helicity, Peptide/DMPC (1:20)", "setting": "[3]", "value": 46.0, "unit": "%"}]}
{"substance": "LRKMRKRLMR-18A (DOMAIN 133..142 mouse apolipoprotein E receptor binding domain; listed as Mus sp.) [mE-18A]", "values": [{"measurement": "Percent Helicity, Peptide", "setting": "[3]", "value": 36.3, "unit": "%"}, {"measurement": "Percent Helicity, Peptide", "setting": "[3]; listed as mE18A", "value": 36, "unit": "%"}, {"measurement": "Percent Helicity, Peptide/DMPC (1:20)", "setting": "[3]", "value": 44.0, "unit": "%"}]}
{"substance": "LRRLRRRLLR-18A (an analog of human apolipoprotein E receptor binding domain) [hE-(R)18A, analog of hE-18A with Lys replaced by Arg]", "values": [{"measurement": "Percent Helicity, Peptide", "setting": "[3]", "value": 51.2, "unit": "%"}, {"measurement": "Percent Helicity, Peptide", "setting": "[3]; listed as hE(R)18A", "value": "~50", "unit": "%"}, {"measurement": "Percent Helicity, Peptide/DMPC (1:20)", "setting": "[3]", "value": 70.8, "unit": "%"}]}
